Measured values from ChEMBL document CHEMBL3994671, “Similarity- and Substructure-Based Development of β2-Adrenergic Receptor Ligands Based on Unusual Scaffolds” (ACS Med Chem Lett, 2017).
The source made the active and inactive calls. The calls are words filed in the database; no cut-off is given here.

Target: T1, Beta-2 adrenergic receptor (Homo sapiens, UniProt P07550)
Assay: Displacement of [3H](-)CGP12177 from human beta2-AR expressed in CHOK1 cells after 2 hrs by TopCount microscintillation counting method
Type: cell-based
Settings: not given

| Structure (SMILES) | inhibition |
| --- | --- |
| C[n+]1c(C2=C(N)N(c3ccccc3)CC2=O)sc2ccccc21 | inactive |
| COc1ccc(C(=O)C[n+]2c(C)n(C(F)F)c3ccccc32)cc1 | Active |
| Cc1n(-c2ccccc2)c2ccc(Cl)cc2[n+]1CCO | Active |

Same assay, conditions: read-out: Kd

| Structure (SMILES) | Kd |
| --- | --- |
| CC(C)(C)NCC(O)COc1ccccc1-c1ccccc1 (centres undefined) [BERLAFENONE] | 3.5e-05 µM |

Same assay, conditions: read-out: pKd (converted)

| Kd | Structure (SMILES) |
| --- | --- |
| 0.891 µM | CCOC(=O)c1cc(/C=C/c2sc3ccccc3[n+]2C)c2sc3ccccc3n12 |
| 5.5 µM | COc1cccc(/C=C2\Oc3c(CN4CCCC4)c(O)cc(C)c3C2=O)c1 |
| 21.9 µM | COc1cccc(/C=C2\Oc3c(CN(C)C)c(O)cc(C)c3C2=O)c1 |
| 17.4 µM | COc1cccc(/C=C2\Oc3c(CN4CCN(C)CC4)c(O)cc(C)c3C2=O)c1 |
| 23.4 µM | CN(C)CCOc1ccc2ccccc2c1C=O |

The next lines start with the compound.

| Structure (SMILES) | Kd |
| --- | --- |
| C[n+]1c(/C=C/Nc2ccccc2)sc2ccccc21 | 38.9 µM |
| CN(C)CCOCCOc1ccccc1-c1ccccc1 | 3.8 µM |
| C=CCNCCOc1ccccc1-c1ccccc1 | 2.63 µM |
| C[n+]1c(/C=C/c2ccccc2Cl)sc2ccccc21 | 4.9 µM |
| CC(C)(C)NC[C@@H](O)COc1ccccc1-c1ccccc1 | 3.55e-05 µM |

Target: T2, Beta-1 adrenergic receptor (Homo sapiens, UniProt P08588)
Assay: Antagonist activity at human beta1-AR expressed in CHOK1 cells assessed as inhibition of cimaterol-induced CRE-SPAP production at 100 uM after 5 hrs
Type: functional, cell-based
Settings: not given
Target sequence in this assay (P08588 whole entry, looked up): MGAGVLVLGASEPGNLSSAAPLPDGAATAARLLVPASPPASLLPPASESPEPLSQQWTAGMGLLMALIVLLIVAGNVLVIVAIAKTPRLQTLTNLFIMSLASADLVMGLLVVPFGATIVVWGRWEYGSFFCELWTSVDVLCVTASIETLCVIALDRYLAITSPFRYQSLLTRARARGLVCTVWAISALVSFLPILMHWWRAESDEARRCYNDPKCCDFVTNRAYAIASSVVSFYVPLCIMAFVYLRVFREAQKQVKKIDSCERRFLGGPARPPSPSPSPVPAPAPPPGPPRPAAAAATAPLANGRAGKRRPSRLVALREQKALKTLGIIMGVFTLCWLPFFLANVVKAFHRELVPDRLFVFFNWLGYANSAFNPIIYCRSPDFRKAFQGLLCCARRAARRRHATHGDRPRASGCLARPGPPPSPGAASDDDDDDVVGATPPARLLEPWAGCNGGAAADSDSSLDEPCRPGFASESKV

| Structure (SMILES) | inhibition |
| --- | --- |
| COc1cccc(/C=C2\Oc3c(CN4CCCC4)c(O)cc(C)c3C2=O)c1 | Active |
| COc1ccc(C(=O)C[n+]2c(C)n(C(F)F)c3ccccc32)cc1 | inactive |
| Cc1n(-c2ccccc2)c2ccc(Cl)cc2[n+]1CCO | inactive |
| C=CCNCCOc1ccccc1-c1ccccc1 | Active |

Target: T1, Beta-2 adrenergic receptor
Assay: Displacement of [3H]DHA from beta2-AR (unknown origin) expressed in baculovirus infected sf9 cell membranes after 1 hr by scintillation counting method
Settings: not given
Target sequence in this assay (P07550 whole entry): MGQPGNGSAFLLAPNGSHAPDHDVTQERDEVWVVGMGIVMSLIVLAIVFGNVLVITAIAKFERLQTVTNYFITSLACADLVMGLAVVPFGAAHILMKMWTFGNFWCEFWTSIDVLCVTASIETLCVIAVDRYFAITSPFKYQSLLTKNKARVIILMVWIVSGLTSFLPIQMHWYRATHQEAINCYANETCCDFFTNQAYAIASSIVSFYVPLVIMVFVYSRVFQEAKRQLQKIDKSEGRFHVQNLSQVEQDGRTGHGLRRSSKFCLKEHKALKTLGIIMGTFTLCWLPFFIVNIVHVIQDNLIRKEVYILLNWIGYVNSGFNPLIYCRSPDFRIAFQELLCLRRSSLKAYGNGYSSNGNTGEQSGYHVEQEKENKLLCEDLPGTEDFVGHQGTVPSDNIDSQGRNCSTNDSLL

| Ki | Structure (SMILES) |
| --- | --- |
| 0.009 to 3.2 µM | Cc1cc(O)c(CN2CCCC2)c2c1C(=O)/C(=C\c1ccco1)O2 |
| 0.009 to 3.2 µM | CCN1C(=Cc2sc3ccccc3[n+]2C)C=Cc2cccc(C)c21 |

Continued, compound first:

| Structure (SMILES) | Ki |
| --- | --- |
| CC(O)CNCCOc1ccccc1-c1ccccc1 (centres undefined) | 0.009 to 3.2 µM |
| CCOC(=O)C1Oc2cccc(OCC(O)CNC(C)C)c2C1C (centres undefined) | 0.009 to 3.2 µM |
| COCCNCCOc1ccccc1-c1ccccc1 | 0.009 to 3.2 µM |
| CCNCCOc1ccccc1-c1ccccc1 | 0.009 to 3.2 µM |

Target: T2, Beta-1 adrenergic receptor
Assay: Neutral antagonist activity at human beta1-AR expressed in CHOK1 cells assessed as inhibition of cimaterol-induced CRE-SPAP production at 100 uM after 5 hrs
Type: functional, cell-based
Settings: not given
Target sequence in this assay (P08588 whole entry, looked up): as the sequence (P08588 whole entry, looked up) above

| Structure (SMILES) | inhibition |
| --- | --- |
| CN(C)CCOCCOc1ccccc1-c1ccccc1 | Active |

Target: T2, Beta-1 adrenergic receptor
Assay: Displacement of [3H](-)CGP12177 from human beta1-AR expressed in CHOK1 cells after 2 hrs by TopCount microscintillation counting method
Type: cell-based
Settings: not given
Target sequence in this assay (P08588 whole entry): as the sequence (P08588 whole entry, looked up) above

| Kd | Structure (SMILES) |
| --- | --- |
| 3.09 µM | CCOC(=O)c1cc(/C=C/c2sc3ccccc3[n+]2C)c2sc3ccccc3n12 |
| 35.5 µM | COc1cccc(/C=C2\Oc3c(CN4CCCC4)c(O)cc(C)c3C2=O)c1 |
| 44.7 µM | COc1cccc(/C=C2\Oc3c(CN(C)C)c(O)cc(C)c3C2=O)c1 |
| 26.3 µM | COc1cccc(/C=C2\Oc3c(CN4CCN(C)CC4)c(O)cc(C)c3C2=O)c1 |

Continued, compound first:

| Structure (SMILES) | Kd |
| --- | --- |
| CN(C)CCOCCOc1ccccc1-c1ccccc1 | 45.7 µM |
| C=CCNCCOc1ccccc1-c1ccccc1 | 27.5 µM |
| C[n+]1c(/C=C/c2ccccc2Cl)sc2ccccc21 | 13.8 µM |
| CC(C)(C)NC[C@@H](O)COc1ccccc1-c1ccccc1 | 0.000977 µM |

Target: T2, Beta-1 adrenergic receptor
Assay: Partial agonist activity at human beta1-AR expressed in CHOK1 cells assessed as CRE-SPAP production after 5 hrs in presence of beta1-AR antagonist CGP20712A
Type: functional, cell-based
Settings: not given
Target sequence in this assay (P08588 whole entry, looked up): as above

| Structure (SMILES) | Activity |
| --- | --- |
| CC(C)(C)NC[C@@H](O)COc1ccccc1-c1ccccc1 | inactive |

Target: T2, Beta-1 adrenergic receptor
Assay: Antagonist activity at human beta1-AR expressed in CHOK1 cells assessed as inhibition of cimaterol-induced CRE-SPAP production at 20 uM after 5 hrs
Type: functional, cell-based
Settings: not given
Target sequence in this assay (P08588 whole entry, looked up): as above

| Structure (SMILES) | inhibition |
| --- | --- |
| CCOC(=O)c1cc(/C=C/c2sc3ccccc3[n+]2C)c2sc3ccccc3n12 | Active |

Species: Homo sapiens
Assay: Selectivity ratio of Kd for human beta1-AR expressed in CHOK1 cells to Kd for human beta2-AR expressed in CHOK1 cells
Type: cell-based
Settings: not given

| Structure (SMILES) | Selectivity ratio |
| --- | --- |
| Cc1cc(O)c(CN(C)C)c2c1C(=O)/C(=C/c1ccccc1)O2 | 1.9 |
| CCOC(=O)c1cc(/C=C/c2sc3ccccc3[n+]2C)c2sc3ccccc3n12 | 3.5 |
| C[n+]1c(/C=C/Nc2ccccc2)sc2ccccc21 | 6.6 |
| Cc1cc(O)c(CN2CCCC2)c2c1C(=O)/C(=C/c1cc3ccccc3o1)O2 | 2.6 |
| COc1cccc(/C=C2\Oc3c(CN4CCCC4)c(O)cc(C)c3C2=O)c1 | 6.5 |
| COc1cccc(/C=C2\Oc3c(CN(C)C)c(O)cc(C)c3C2=O)c1 | 2 |
| COc1cccc(/C=C2\Oc3c(CN4CCN(C)CC4)c(O)cc(C)c3C2=O)c1 | 1.5 |
| CN(C)CCOCCOc1ccccc1-c1ccccc1 | 12 |
| CN(C)CCOc1ccc2ccccc2c1C=O | 4.2 |
| C=CCNCCOc1ccccc1-c1ccccc1 | 10.5 |
| C[n+]1c(/C=C/c2ccccc2Cl)sc2ccccc21 | 2.8 |
| CC(C)(C)NC[C@@H](O)COc1ccccc1-c1ccccc1 | 27.5 |

Target: T1, Beta-2 adrenergic receptor
Assay: Antagonist activity at human beta2-AR expressed in CHOK1 cells assessed as inhibition of cimaterol-induced CRE-SPAP production at 20 uM after 5 hrs
Type: functional, cell-based
Settings: not given
Target sequence in this assay (P07550 whole entry, looked up): as the sequence (P07550 whole entry) above

| Structure (SMILES) | inhibition |
| --- | --- |
| CCOC(=O)c1cc(/C=C/c2sc3ccccc3[n+]2C)c2sc3ccccc3n12 | Active |

Target: T2, Beta-1 adrenergic receptor
Assay: Partial agonist activity at human beta1-AR expressed in CHOK1 cells assessed as inhibition of cimaterol-induced CRE-SPAP production after 5 hrs
Type: functional, cell-based
Settings: not given
Target sequence in this assay (P08588 whole entry, looked up): as the sequence (P08588 whole entry, looked up) above

| Structure (SMILES) | inhibition |
| --- | --- |
| CC(C)(C)NC[C@@H](O)COc1ccccc1-c1ccccc1 | Active |

Target: T1, Beta-2 adrenergic receptor
Assay: Antagonist activity at human beta2-AR expressed in CHOK1 cells assessed as inhibition of cimaterol-induced CRE-SPAP production at 2 uM after 5 hrs
Type: functional, cell-based
Settings: not given
Target sequence in this assay (P07550 whole entry, looked up): as the sequence (P07550 whole entry) above

| Structure (SMILES) | inhibition |
| --- | --- |
| CCOC(=O)c1cc(/C=C/c2sc3ccccc3[n+]2C)c2sc3ccccc3n12 | Active |

Target: T2, Beta-1 adrenergic receptor
Assay: Displacement of [3H](-)CGP12177 from human beta1-AR expressed in CHOK1 cells at 20 to 100 uM after 2 hrs by TopCount microscintillation counting method relative to control
Type: cell-based
Settings: not given
Target sequence in this assay (P08588 whole entry, looked up): as the sequence (P08588 whole entry, looked up) above

| Structure (SMILES) | inhibition |
| --- | --- |
| CCCCN(C)Cc1c(O)cc(C)c2c1O/C(=C\c1cc3cc(Br)ccc3o1)C2=O | < 50% |

Target: T2, Beta-1 adrenergic receptor
Assay: Antagonist activity at human beta1-AR expressed in CHOK1 cells assessed as inhibition of cimaterol-induced CRE-SPAP production at 2 uM after 5 hrs
Type: functional, cell-based
Settings: not given

| Structure (SMILES) | inhibition |
| --- | --- |
| CCOC(=O)c1cc(/C=C/c2sc3ccccc3[n+]2C)c2sc3ccccc3n12 | inactive |

Target: T2, Beta-1 adrenergic receptor
Assay: Partial agonist activity at human beta1-AR expressed in CHOK1 cells assessed as CRE-SPAP production after 5 hrs
Type: functional, cell-based
Settings: not given

| Structure (SMILES) | Activity |
| --- | --- |
| CC(C)(C)NC[C@@H](O)COc1ccccc1-c1ccccc1 | Active |

Target: T1, Beta-2 adrenergic receptor
Assay: Neutral antagonist activity at human beta2-AR expressed in CHOK1 cells assessed as inhibition of cimaterol-induced CRE-SPAP production at 100 uM after 5 hrs
Type: functional, cell-based
Settings: not given
Target sequence in this assay (P07550 whole entry, looked up): as the sequence (P07550 whole entry) above

| Structure (SMILES) | inhibition |
| --- | --- |
| CN(C)CCOCCOc1ccccc1-c1ccccc1 | Active |

Target: T1, Beta-2 adrenergic receptor
Assay: Partial agonist activity at human beta2-AR expressed in CHOK1 cells assessed as inhibition of cimaterol-induced CRE-SPAP production after 5 hrs
Type: functional, cell-based
Settings: not given
Target sequence in this assay (P07550 whole entry): as above

| Structure (SMILES) | Kd |
| --- | --- |
| CC(C)(C)NC[C@@H](O)COc1ccccc1-c1ccccc1 | 0.0182 nM |

Target: T1, Beta-2 adrenergic receptor
Assay: Antagonist activity at human beta2-AR expressed in CHOK1 cells assessed as inhibition of cimaterol-induced CRE-SPAP production at 100 uM after 5 hrs
Type: functional, cell-based
Settings: not given
Target sequence in this assay (P07550 whole entry, looked up): as the sequence (P07550 whole entry) above

| Structure (SMILES) | inhibition |
| --- | --- |
| COc1cccc(/C=C2\Oc3c(CN4CCCC4)c(O)cc(C)c3C2=O)c1 | Active |
| COc1ccc(C(=O)C[n+]2c(C)n(C(F)F)c3ccccc32)cc1 | inactive |
| Cc1n(-c2ccccc2)c2ccc(Cl)cc2[n+]1CCO | inactive |
| C=CCNCCOc1ccccc1-c1ccccc1 | Active |
